“Also recorded” adds a separate entry of the source. Where two headings read alike, the source gives them in different places.
Key:
[1] = tested on: cultured corneal endothelial cells; test: Pharmacological regulation of morphology and mitosis in cultured rabbit corneal endothelium (Example 2); assay type: cell-based
[2] = tested on: rabbit corneal endothelial cells; conditions: cited from earlier work; for cell shape in first passage cultures (rabbit): EGF and/or indomethacin
[3] = tested on: rabbit corneal endothelial cells; test: Cell shape morphometry of confluent cultured rabbit corneal endothelial cells (Example 1); conditions: for potentiation of EGF-induced elongation: 10^-5, equimolar, in presence of EGF; for rank order of potency of cyclooxygenase inhibitors on cell shape: effect on cell shape in presence of EGF; for cell shape at confluence / mean / distribution of the major axes (Amax): cultured seven days; for cell shape at confluence: control cells polygonal; for mean / distribution of the major axes (Amax): control mean 33 μ; for ratio Per/Amax: perimeter / major axis, 3.14 for a perfectly round cell
[4] = tested on: human corneal endothelial cells; conditions: EGF and/or indomethacin; cited from earlier work
[5] = tested on: cultured corneal endothelial cells; conditions: control cultures and cultures with EGF
[6] = tested on: Corneal endothelial cells; test: f-actin labelling with rhodamine labelled phallacidin in cultured corneal endothelial cells; conditions: 1 week culture; control shows circumferential bands of f-actin
cat corneal endothelium = conditions: 22° C.; cited from earlier work
[7] = tested on: most cell culture systems; conditions: cited from earlier work
[8] = tested on: Corneal endothelial cells; test: Transmission electron microscopy of pharmacologically modulated endothelial phenotypes; conditions: cultured cells
[9] = tested on: intact rabbit corneal endothelium; test: Endothelial wound closure in excised rabbit corneas, specular microscopy with morphometric analysis (Example 3)
[10] = EGF 10 ng/ml, indomethacin 1 μM in M-K medium

With C=C[C@@]1(C)CC(=O)[C@]2(O)[C@@]3(C)[C@@H](O)CCC(C)(C)[C@@H]3[C@H](O)[C@H](OC(C)=O)[C@@]2(C)O1 [Forskolin] the “effect on EGF and INDO-induced elongation” value ([1]; added with EGF and INDO) was “prevented EGF and INDO-induced elongation” and the “effect on cell density / mitosis in presence of EGF and INDO” value ([1]; added with EGF and INDO) was “inhibited endothelial mitosis”.
In the case of CCCCC[C@H](O)/C=C/[C@H]1[C@H](O)CC(=O)[C@@H]1C/C=C\CCCC(=O)O [PGE2, prostaglandin E2], the “effect of exogenous PGE2 on elongation in cultures treated with EGF and indomethacin” value ([2]; added with EGF and indomethacin) is given as “blocks elongation”.
With CCCCC[C@H](O)/C=C/[C@@H]1[C@@H](C/C=C\CCCC(=O)O)[C@@H](O)C[C@H]1O [PGF2α] the “effect on elongation of Amax produced by EGF and indomethacin” value ([3]; increasing concentrations/doses added with EGF and indomethacin) was “has no effect on the elongation of Amax”.
In the case of CCCCCCCCCCCCCC(=O)O[C@@H]1[C@@H](C)[C@@]2(O)[C@@H](C=C(CO)C[C@]3(O)C(=O)C(C)=C[C@@H]23)[C@H]2C(C)(C)[C@]12OC(C)=O [TPA], the “cell density / mitosis, agent alone” value [1] is reported as “increased cell density”, the “cell shape (elongation), agent alone” value [1] is reported as “caused elongation” and the “synergy when TPA and EGF both present in the medium” value [1] is reported as “synergistic effects were not noted”.
In the case of CCCCC/C=C\C/C=C\C/C=C\C/C=C\CCCC(=O)O [arachidonic acid], the “effect on cell shape” value ([3]; added in the absence of EGF, in the presence or absence of indomethacin) is reported as “had no effect on cell shape”.
In the case of C[C@@H]1C[C@H]2[C@@H]3CCC4=CC(=O)C=C[C@]4(C)[C@@]3(F)[C@@H](O)C[C@]2(C)[C@@]1(O)C(=O)CO [dexamethasone], the “potentiation of EGF-induced elongation” value [3] is reported as “has no effect” and the “rank order of potency of cyclooxygenase inhibitors on cell shape” value [3] is reported as “inactivity”.
In the case of CC(C(=O)O)c1ccc(-c2ccccc2)c(F)c1 (stereo not shown) [flurbiprofen], the “rank order of potency of cyclooxygenase inhibitors on cell shape” value [3] is reported as “indomethacin>suprofen>flurbiprofen”.
In the case of COc1ccc2c(c1)c(CC(=O)O)c(C)n2C(=O)c1ccc(Cl)cc1 [indomethacin], the “cellular elongation, INDO added to TPA containing medium” value ([1]; with TPA) is given as “marked enhancement of cellular elongation”, the “final cell density, INDO added to TPA containing medium” value ([1]; with TPA) is given as “had no effect on final cell density” and the “cell shape in first passage cultures (rabbit)” value [2] is given as “cause elongation”. The “PGE2 synthesis by cultures of polygonal endothelial cells” value [2] was “totally inhibited”, the “cell shape in first passage cultures (human)” value [4] was “cause elongation” and the “synthesis of PGE2” value [5] was “totally inhibits”. For the same molecule, the “cell shape at confluence” value [3] was “elongated at confluence with a stellate shape”, the “mean / distribution of the major axes (Amax)” value [3] was “increases” and the “rank order of potency of cyclooxygenase inhibitors on cell shape” value [3] was “indomethacin>suprofen>flurbiprofen”. The “ratio Per/Amax” value [3] was 2.6 and the f-actin staining pattern [6] was “almost completely lacking in individual actin fibers”.
For CC(C(=O)O)c1ccc(C(=O)c2cccs2)cc1 (stereo not shown) [suprofen], the “potentiation of EGF-induced elongation” value [3] was “Potentiation of EGF-induced elongation also occurs” and the “rank order of potency of cyclooxygenase inhibitors on cell shape” value [3] was “indomethacin>suprofen>flurbiprofen”.
For Cholera toxin, the “cell shape (elongation), agent alone” value [1] was “had no effect on cell shape”, the “effect on EGF and INDO-induced elongation” value [1] was “antagonized EGF and INDO-induced elongation” and the “effect on EGF-induced elongation” value [1] was “EGF-induced elongation did not occur”. The “effect on cell density / mitosis in presence of EGF and INDO” value [1] was “without preventing increased cell density”, the “effect on elongation in response to TPA” value [1] was “did not prevent elongation in response to TPA” and the “effect on mitogenic effect of EGF” value [1] was “potentiated”. The “effect on mitogenic response to TPA” value [1] was “potentiate the mitogenic response”.
For epidermal growth factor [EGF], the “time for association of radiolabeled EGF to be complete” value (cat corneal endothelium) is given as “approximately 120 minutes”, the “time after addition at which DNA synthesis reaches a maximum” value [7] is given as “about 22 hours” and the “time after addition at which increased DNA synthesis begins” value [7] is given as “approximately 15 hours”. The “cell shape in first passage cultures (rabbit)” value [2] was “cause elongation”, the “shape change in cultured rabbit tissue (April 1986 paper)” value [2] was “induce a shape change in the cells that is independent of mitosis” and the “cell shape in first passage cultures (human)” value [4] was “cause elongation”. The “synthesis of PGE2” value [5] was “unaffected”, the “ultrastructure by transmission electron microscopy” value [8] was “Junctional complexes were absent” and the cell density ([3]; compared with cells grown under control conditions) was “little or no effect on cell density”. For the same molecule, the “cell shape at confluence” value [3] was “spindle-shaped at confluence”, the “mean / distribution of the major axes (Amax)” value [3] was “significantly greater distribution of major axes” and the “ratio Per/Amax” value [3] was “decreases significantly”. For the same molecule, the “average percent change of the shape factor relative to control group” value ([9]; 150 minutes after wounding) was “two times greater”, the “average displacement of cells near the wound boundary” value ([9]; 150 minutes after wounding, control 7 μm) was about 16 μm and the “migration of cells near the wound boundary vs control group” value [9, 10] was “migrated significantly more than those in the control group; also recorded: significantly increased migration of cells near the wound boundary”. For the same molecule, the “wound closure time vs control group” value [9, 10] was “shortened the wound closure time”, the “time after wounding at which wound area reached maximum” value ([9]; EGF 10 ng/ml, indomethacin 1 μM in M-K medium, 37° C., control 20 minutes) was 10 min and the “time for wound area to decrease to 50% of the original size” value ([9]; EGF 10 ng/ml, indomethacin 1 μM, control about 240 minutes) was at most 120 min. For the same molecule, the “relative average percent change of the shape factor, significance vs control (FIG. 3)” value ([9]; EGF+indomethacin at 50, 100, 150 minutes, EGF at 100 and 150 minutes) was “significantly different from the control group”, the “time of peak of the shape change” value ([9]; one cornea per group, control 200 minutes) was 150 min and the “wound closed to percent of the original size” value ([9]; within 250 minutes after wounding) was 80%.
